From patent US20230414607A1, “METHODS OF TREATMENT” (BOW RIVER LLC, priority 2017, published 2023)

test system: not listed separately; assay: AUC and Cmax target safe levels of CYP3A4 substrate drugs (Table 1); conditions: component of ivacaftor/tezacaftor
Source text: In various embodiments, the “Target safe levels” are non-limiting examples of the upper limit of fold change or percent of baseline where in some embodiments the benefits of treating the patient for the condition or disease for which the CYP3A4 substrate drug is indicated outweigh the risks associated with the effects of a drug-drug interaction. […] For purposes of the present methods, the blood plasma levels measured during co-administration of the CYP3A4 substrate drug with […] may be used to estimate the posaconazole DDI decay curve, e.g., using equation 1.

Row | Structure (SMILES) | AUC target safe level, Fold change | AUC target safe level, Percent of baseline | Cmax target safe level, Fold change | Cmax target safe level, Percent of baseline
1 | CC(C)(C)c1cc(C(C)(C)C)c(NC(=O)c2c[nH]c3ccccc3c2=O)cc1O [ivacaftor] | 2.95; fold | 295%; | 2.47; fold | 247%;

same assay, conditions: human

Row | Structure (SMILES) | AUC target safe level, Fold change | AUC target safe level, Percent of baseline | Cmax target safe level, Fold change | Cmax target safe level, Percent of baseline
2 | COc1cc2c(cc1OC)[C@H]1C[C@@H](OC(=O)[C@@H](N)C(C)C)[C@H](CC(C)C)CN1CC2 [valbenazine] | val: 2.2 fold | val: 220% | val: 1.6 fold | val: 160%
3 | C[C@@H]1CCN(C(=O)CC#N)C[C@@H]1N(C)c1ncnc2[nH]ccc12 [tofacitinib] | – | 175% | – | –
4 | CN(C)C(=O)N[C@H]1CC[C@H](CCN2CCN(c3cccc(Cl)c3Cl)CC2)CC1 [cariprazine] | – | 400% | – | –
5 | COc1cccc(-c2c(C)n(Cc3c(F)cccc3C(F)(F)F)c(=O)n(C[C@H](NCCCC(=O)O)c3ccccc3)c2=O)c1F [elagolix sodium] | 2.2 fold | 220% | 1.77 fold | 177%
6 | Cc1[nH]c2ccccc2c1CCNCc1ccc(/C=C/C(=O)NO)cc1 [panobinostat] | 1.73 fold | 173% | 1.62 fold | 162%
7 | C=CC(=O)N1CCC[C@@H](n2nc(-c3ccc(Oc4ccccc4)cc3)c3c(N)ncnc32)C1 [ibrutinib] | – | 300% | – | –
8 | O=c1ccc2ccc(OCCCCN3CCN(c4cccc5sccc45)CC3)cc2[nH]1 [brexpiprazole] | 2 fold | 200% | 1.2 fold | 120%
9 | CC(C)COc1ccc(CNC(=O)N(Cc2ccc(F)cc2)C2CCN(C)CC2)cc1 [pimavanserin] | 3 fold | 300% | 1.5 fold | 150%
10 | C[C@H](Nc1ncnc2[nH]cnc12)c1cc2cccc(Cl)c2c(=O)n1-c1ccccc1 [duvelisib] | 2 fold | 200% | 1.7 fold | 170%
11 | COc1cc2c(cc1OC)[C@H]1C[C@@H](O)[C@H](CC(C)C)CN1CC2 [[+]-α-HTBZ] | 2.1 fold | 210% | 1.7 fold | 170%
12 | N#CC[C@H](C1CCCC1)n1cc(-c2ncnc3[nH]ccc23)cn1 [ruxolitinib] | 1.91 fold | 191% | 1.33 fold | 133%
13 | COc1c(OCCCN2CCOCC2)ccc2c1N=C(NC(=O)c1cnc(N)nc1)N1CCN=C21 [copanlisib] | 1.53 fold | 153% | 1.03 fold | 103%
14 | CO[C@@H]1[C@H](N(C)C(=O)c2ccccc2)C[C@H]2O[C@]1(C)n1c3ccccc3c3c4c(c5c6ccccc6n2c5c31)C(=O)NC4 [midostaurin] | 10.4 fold | 1040% | – | –
15 | COc1cc(OC)cc(N(CCNC(C)C)c2ccc3ncc(-c4cnn(C)c4)nc3c2)c1 [erdafitinib] | 1.34 fold | 134% | 1.05 fold | 105%
16 | CC(C)(CO)c1cc2cc(NC(=O)C3(c4ccc5c(c4)OC(F)(F)O5)CC3)c(F)cc2n1C[C@@H](O)CO [tezacaftor] | 2.0 fold | 200% | – | –
17 | CN(C(=O)c1ccccc1)[C@@H]1C[C@H]2O[C@@](C)([C@@H]1O)n1c3ccccc3c3c4c(c5c6ccccc6n2c5c31)C(=O)NC4 [CGP62221] | 3.5 fold | 350% | – | –
18 | CC(=O)OCC(=O)[C@@]12N=C(C)O[C@@H]1C[C@H]1[C@@H]3CCC4=CC(=O)C=C[C@]4(C)[C@H]3[C@@H](O)C[C@@]12C [deflazacort] | 3 fold | 300% | – | –
19 | CNC(=O)c1ccc(N2C(=S)N(c3cnc(C#N)c(C(F)(F)F)c3)C(=O)C23CCC3)cc1F [apalutamide] | 1.24 fold | 124% | 1.38 fold | 138%
20 | CCc1nc(C(N)=O)c(Nc2ccc(N3CCC(N4CCN(C)CC4)CC3)c(OC)c2)nc1NC1CCOCC1 [gilteritinib] | 2.2 fold | 220% | 1.20 fold | 120%
21 | CN1CC[C@@H](NC(=O)Nc2ccc(C#N)cc2)C[C@@H]1c1nc2ccccc2[nH]1 [glasdegib] | 2.4 fold | 240% | 1.4 fold | 140%

same assay, conditions: upper limit where benefits outweigh risks; approximation, can vary by about ±25%

Row | Structure (SMILES) | AUC target safe level, Fold change [fold] | AUC target safe level, Percent of baseline [%] | Cmax target safe level, Fold change [fold] | Cmax target safe level, Percent of baseline [%]
22 | CC(C)(C)c1cc(C(C)(C)C)c(NC(=O)c2c[nH]c3ccccc3c2=O)cc1O [ivacaftor] | 3 | 300 | 2.7 | 270
23 | O=C1CCc2ccc(OCCCCN3CCN(c4cccc(Cl)c4Cl)CC3)cc2N1 [aripiprazole] | 1.7 | 170 | 1.4 | 140
24 | CC(C)(NC(=O)C1=C(O)[C@@H]2Oc3c(O)ccc4c3[C@@]23CCN(CC2CC2)[C@H](C4)[C@]3(O)C1)c1nc(-c2ccccc2)no1 [naldemedine] | 1.9 | 190 | 1.38 | 138
25 | CCN(CC)CCNC(=O)c1c(C)[nH]c(/C=C2\C(=O)Nc3ccc(F)cc32)c1C [sunitinib] | 1.51 | 151 | 1.49 | 149

biological target: CYP3A4 (Homo sapiens, UniProt P08684); assay: not given; conditions: in vivo; cited from earlier work
Sequence (P08684 whole entry): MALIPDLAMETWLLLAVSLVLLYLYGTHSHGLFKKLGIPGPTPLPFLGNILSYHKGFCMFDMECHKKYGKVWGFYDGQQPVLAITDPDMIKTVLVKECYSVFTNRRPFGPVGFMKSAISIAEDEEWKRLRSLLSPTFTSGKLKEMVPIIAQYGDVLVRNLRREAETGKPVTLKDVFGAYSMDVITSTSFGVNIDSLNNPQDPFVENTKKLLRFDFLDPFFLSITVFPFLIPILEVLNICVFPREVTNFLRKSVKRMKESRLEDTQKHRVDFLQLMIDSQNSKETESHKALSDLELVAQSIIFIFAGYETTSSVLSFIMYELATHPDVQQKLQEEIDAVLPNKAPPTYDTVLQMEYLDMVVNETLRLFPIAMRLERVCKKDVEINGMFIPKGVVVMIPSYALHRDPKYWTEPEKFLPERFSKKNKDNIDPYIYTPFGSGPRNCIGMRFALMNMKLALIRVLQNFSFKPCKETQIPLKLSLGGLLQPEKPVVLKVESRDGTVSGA

Row | Structure (SMILES) | AUC co-administration levels, Fold change | AUC co-administration levels, Percent of baseline [%] | Cmax co-administration levels, Fold change [fold] | Cmax co-administration levels, Percent of baseline [%] | elevation of baseline AUC when coadministered with posaconazole (percent of baseline) [%]
26 | COC(=O)N[C@@H](C)CNc1nccc(-c2cn(C(C)C)nc2-c2cc(Cl)cc(NS(C)(=O)=O)c2F)n1 [encorafenib] | 3 fold | 300 | 1.45 | 145 | 300
27 | C=C[C@@H]1C[C@]1(NC(=O)[C@@H]1C[C@@H]2CN1C(=O)[C@H](C(C)(C)C)NC(=O)O[C@@H]1C[C@H]1CCCCCc1nc3ccc(OC)cc3nc1O2)C(=O)NS(=O)(=O)C1CC1.O [grazoprevir] | GZR: 3.02 fold | 302 | 1.13 | 113 | –
28 | Cc1cn(-c2cc(NC(=O)c3ccc(C)c(Nc4nccc(-c5cccnc5)n4)c3)cc(C(F)(F)F)c2)cn1 [nilotinib] | 3 fold | 300 | – | – | –
29 | N#C[C@@H]1C[C@@H]2C[C@@H]2N1C(=O)[C@@H](N)C12CC3CC(CC(O)(C3)C1)C2 [saxagliptin] | 3.67 fold | 367 | 2.44 | 244 | –
30 | O=C(c1ccc(F)c(F)c1Nc1ccc(I)cc1F)N1CC(O)([C@@H]2CCCCN2)C1 [cobimetinib] | 6.7 fold | 670 | 3.2 | 320 | –
31 | CN(C)C(=O)c1cc2cnc(Nc3ccc(N4CCNCC4)cn3)nc2n1C1CCCC1 [ribociclib] | 3.2 fold | 320 | 1.7 | 170 | –
